The values below are quoted from earlier work in patent US20220241165A1, “ORAL CARE COMPOSITIONS COMPRISING OXALIC ACID” (The Procter & Gamble Company, priority 2021, published 2022).

Usually pKa stands for the pH at which an ionisable group is half protonated.

In the case of `O=C(O)C(=O)O` [oxalate ion], the pKa is 4.1.
